Measurements reported in US20050020544A1, “Bicyclic CB2 cannabinoid receptor ligands” (priority 2002, published 2005).

How the values were obtained:
[1] = test system: IL-1β secretion from activated RAW 264.7 macrophages; assay: Inhibition of IL-1β in LPS activated macrophages (ELISA); type: cell-based; conditions: Mus musculus, RAW264.7, 24 h, read-out: inhibition of IL-1β secretion
Procedure: The technique used to quantify the amount of a given protein in a liquid sample, either tissue culture supernatant or body fluid, is based on Enzyme Linked ImmunoSorbent Assay (ELISA) methodology. Either commercially available or established in house, the assay is based on the capture of the protein of interest by specific antibodies bound to the bottom of an ELISA plate well. […] Again the unbound material is washed away, the samples are then incubated with the appropriate substrate yielding a calorimetric reaction. The reaction is stopped and reading is performed in a spectrophotometer at the appropriate wavelength. Samples are tested at least in duplicate and the appropriate standard curve, consisting of serial dilutions of the recombinant target protein, is incorporated on each plate. Concentration of the protein in the sample is calculated from the standard curve.
RAW 264.7 macrophages, a mouse cell line (ATCC # TIB-71), were grown in Dulbecco's modified Eagle's medium (DMEM) with 4 mM L-glutamine adjusted to contain 1.5 g/L sodium bicarbonate, 4.5 g/L glucose, and 10% heat inactivated fetal bovine serum. Cells were grown in tissue culture flasks and seeded at appropriate density into 24 wells tissue culture plates. 0.5×10^6 Raw cells in one milliliter were stimulated with 2 μg/ml Lipopolysaccharide E. coli 055:B5 (DIFCO Laboratories). The mouse macrophages were pre-treated for one hour with controls or 10 μM of bicyclic CB2 ligands and later on activated with LPS. Dexamethasone was used as a positive control at 50 nM. Supernatant was collected 4 hours (for PGE2) and 24 hours (for IL-1β and TNF-α) after activation, and the levels of the inflammatory agent under study were determined by ELISA, as previously described. Inhibition was calculated versus vehicle treated cells.

[2] = test system: Lewis rats; type: in vivo, rat
Procedure: Various animal models of autoimmune encephalomyelitis are known in the art, depending on the method of induction, the strain of the animal and the antigen employed to induce the disease. The impact of bicyclic CB2 ligands was tested in EAE using Lewis rats in which the onset of disease is observed by the appearance of clinical symptoms about 10 days after induction. The disease progress and the clinical score increase and peak around day 15 and spontaneous recovery is observed around day 18 after induction of the disease. The animals (at least 9 per test group at initiation of study, except for the untreated control group that comprised only 5 rats) were maintained on a 12 hours light/12 hours dark regimen, at a constant temperature of 22° C., with food and water ad libitum. EAE was induced in these animals by immunization with s.c. injection to the hind paws of 25 μg of purified guinea pig myelin basic protein (MBP, Sigma) emulsified in 0.1 ml of Complete Freund's Adjuvant (Difco).
Methylprednisolone was used as positive control and it was administered daily for 5 consecutive days i.v. at 30 mg/kg starting from day of disease induction by MBP injection. The results are recorded as clinical score; score of 0 indicates a normal animal with no clinical signs, 0.5 indicates a loss of tonicity in the tail's distal part, 1 indicates whole tail paralysis, 2 indicates paraplegia, 3 indicates quadriplegia, 4 indicates complete body paralysis and moribund state and 5 indicates death. The clinical score of the animals is recorded for 11 days following onset of disease and the area under the curve (AUC) is calculated over this period of time.
Moreover, in a separate study animals were euthanized 15 days after induction of the disease by i.p. injection of 100 mg/kg pentobarbital. Brains and spinal cord were removed and were fixed by overnight incubation with 4% Paraformaldehyde. The cervical segment of the spinal cord was dehydrated using ethanol solutions of increasing concentration and then embedded in paraplast. The spinal cord was then sectioned (10 μm) and staining was performed using hematoxylin and eosin. The stained slides were examined under light microscopy for foci of infiltrating lymphocytes. Number of foci were counted and averaged in 6 sections for each animal. Three groups of at least 4 animals each were tested in this system: untreated, vehicle treated, and animals treated with 0.5 mg/kg of compound A. Results are expressed as average±SD of number of foci.

[3] = test system: Sprague Dawley male rats; assay: Tail flick model, i.v.; type: in vivo, rat; conditions: for % animals with latency time twice superior to vehicle: ninety minutes
Procedure: Each treatment group contained at least 6 animals. […] Its vehicle, saline, was also included as control.
Two parameters were used to analyze the results, the latency time and the % of animals showing analgesia. […] The results in both cases are expressed as mean±SE.
Similar studies were performed in Sprague Dawley male rats where the drug was injected i.v. instead of i.p. in the mice model. […] These observations are consistent with the route of administration. In the i.p. study the first time point post-injection was 30 minutes, while it was 10 minutes following i.v. injection thus the onset of action was not thoroughly determined in these experiments. […] At the last time point tested (330 minutes following injection), almost 70% of the animals treated with 4 mg/kg of compound A retained increase resistance to pain.

[4] = target: T1, human CB1 receptor (Homo sapiens, UniProt P21554); assay: Adenylylcyclase assay: forskolin-activated cAMP in CB1 transfected HEK-293 cells; type: cell-based
T1 construct: purchased Perkin Elmer/NEN; host or cells: HEK-293 cells, stably transfected (membranes)
Procedure: Cannabinoids and derivatives bind to G-protein-coupled CB1 and CB2 receptors and exert their activity via the inhibition of adenylylcyclase activity. An adenylylcyclase assay forms a basis for the functional analysis of the compounds by determining their capacity to inhibit or promote forskolin-activated cAMP production. The assay is carried out according to Chin et al. (Chin, C. N. et al., J. Neurochem. 70: 366-73, 1998). Briefly, HEK-293 human kidney cells (ATCC#CRL-1573) stably transfected with either the human CB1 or CB2 receptor (cDNA) were grown in DMEM supplemented with 10% fetal calf serum, 1% Penicillin-Streptomycin and 2 mM L-glutamine. Cells were seeded in 24 wells plate at 5×10^4 cells/well and incubated for 48 hours. Medium was then removed and the adherent cells were washed with PBS. Two hundred μl of serum free medium supplemented with 0.2 mM Ro 20-1724, 0.25% BSA, and 20 mM HEPES was then added to each well. The cells were then activated with 1 μM forskolin in presence of the bicyclic test compounds in concentrations ranging from 10 pM up to 1 μM. The activated cells were then incubated at 37° C. for 20 minutes and the reaction terminated with 1.2 M HCl to a final concentration of 0.1 M. Cells were lyzed by freeze and thaw and the lysate was neutralized with 2 M HEPES, pH 7.5. cAMP was measured in 50 μl aliquots using the [^3H]-cAMP assay system (Amersham).
This experiment was first performed on CB2 receptor transfected cells.

T1 sequence (P21554 whole entry): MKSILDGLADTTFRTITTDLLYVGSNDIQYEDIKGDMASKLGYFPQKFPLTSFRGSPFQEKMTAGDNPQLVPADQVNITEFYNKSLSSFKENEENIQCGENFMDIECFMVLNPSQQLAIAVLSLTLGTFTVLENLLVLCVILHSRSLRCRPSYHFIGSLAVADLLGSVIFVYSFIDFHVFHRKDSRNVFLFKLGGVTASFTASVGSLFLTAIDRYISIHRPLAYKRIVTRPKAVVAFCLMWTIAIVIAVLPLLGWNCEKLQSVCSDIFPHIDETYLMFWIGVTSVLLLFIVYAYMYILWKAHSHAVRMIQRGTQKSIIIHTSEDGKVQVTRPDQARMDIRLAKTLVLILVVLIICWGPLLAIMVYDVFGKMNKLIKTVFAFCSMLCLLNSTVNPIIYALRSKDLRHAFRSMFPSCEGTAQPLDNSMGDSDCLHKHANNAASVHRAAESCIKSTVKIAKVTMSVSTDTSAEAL

## CCCCCCC(C)(C)c1cc(O)c(C2CC(=O)C3CC2C3(C)C)c(O)c1 (single isomer, unassigned; (-)) [Compound A, (−)-4-[4-(1,1-Dimethyl-heptyl)2,6-dihydroxy-phenyl]-6,6-dimethyl-bicyclo[3.1.1)heptan-2-one]
[1]
  inhibition at 10 µM: 76%
[2]; 0.5 mg/kg, 15 days after induction
  decrease of infiltration: more than 50%
[2]; 0.5 mg/kg, 15 days after induction, average±SD
  number of infiltration foci in spinal cord: 10±5 foci/section
[2]; 1 mg/kg, independent blinded repeat
  reduction in the clinical score: 30%
[2]; 1 mg/kg, three consecutive days from onset of disease
  reduction in the AUC of the clinical score: 35%
[2]; EAE, 1 mg/kg versus tolerated 40 mg/kg
  therapeutic index: at least 40
[3]; 3 mg/kg i.v.
  % animals with latency time twice superior to vehicle: 100%
[3]; 4 mg/kg i.v., 330 minutes
  % animals with increased resistance to pain: ~70%
[3]; 4 mg/kg i.v.
  % animals with latency time twice superior to vehicle: 100%
[4]
  IC50: 10.3 nM
[4]; HEK293, CB1 transfected HEK-293, 1 μM forskolin, read-out: maximal inhibition at 1 μM
  inhibition at 1 µM: 69%
